In data set [1] the test system is α-synuclein. In words: α-synuclein accumulation in brains of V394L knock-in mice treated with CBE. The format is in vivo. The note with it: CBE daily i.p. for 30 days. The procedure: Mice homozygous for the point mutations D409H or V394L and expressing a low level of saposin C in a prosaposin knock-out background, were analyzed for accumulation of α-synuclein in the brain. These mice have been reported to accumulate glucosylceramide in the brain. Mice homozygous for the point mutations V394L only, were analyzed for α-synuclein accumulation with and without CBE treatment. […] Mice were administered CBE daily by interperitonally injection for 30 consequitive days ([…] calculated from the total weight of the mouse) and brains were analyzed by immunohistochemistry for accumulation of α-synuclein.
Brain tissue was frozen and fixed for immunohistochemistry with 4% paraformaldehyde and serial sections were co-labelled with anti-human α-synuclein (ab1903; Abcam, Cambridge, Mass.) and rabbit anti-ubiquitin (ab7780; Abcam, Cambridge, Mass.).

Data set [2] relates to α-synuclein. In words: α-synuclein immunohistochemistry in transgenic mice over-expressing α-synuclein. The format is in vivo. As to the method: 48 transgenic animals (male and female) were allocated to 6 groups (n=8) at an age of 5 to 6 weeks concerning baseline and 3 to 4 weeks, respectively concerning all other treatment groups at treatment start. One group of transgenic animals served as baseline group (5 weeks old) and was sacrificed untreated on day 0. One group of transgenic animals was treated with vehicle.
Mice (ages 3-4 weeks) were treated once daily (orally) at either 2 mg/kg; 20 mg/kg; or 200 mg/kg of IFG tartrate for 3 months. One group also was treated once every other day at 20 mg/kg.
Animals of the baseline group were sacrificed at an age of 5 weeks. All other animals were sacrificed at the end of the 3 months treatment period and blood for preparation of serum and macrophages as well as lung, brain and CSF were extracted. Therefore, all mice were sedated by standard inhalation anesthesia (Isofluran, Baxter). Cerebrospinal fluid was obtained by blunt dissection and exposure of the foramen magnum. Upon exposure, a Pasteur pipette was inserted to the approximate depth of 0.3-1 mm into the foramen magnum. CSF was collected by suctioning and capillary action until flow fully ceases. CSF was immediately frozen and kept at −80° C.
After CSF sampling, each mouse was placed in dorsal recumbence, the thorax was opened and a 26-gauge needle attached to a 1 cc syringe was inserted into the right cardiac ventricular chamber. Light suction was applied to the needle. Blood was separated into 2 parts. […] Mice were transcardially perfused with physiological (0.9%) saline and lung tissue as well as brain was rapidly removed. The lungs were rinsed in cold PBS (outside only) to remove blood and then they were quick frozen.
The brains were removed and hemisected. The right hemispheres of all mice were immersion fixed in freshly produced 4% paraformaldehyde/PBS (pH 7.4) for one hour at room temperature. Thereafter brains were transferred to a 15% sucrose PBS solution for 24 hours to ensure cryoprotection. On the next day brains were frozen in liquid isopentane and stored at −80° C. until used for histological investigations. To determine the effects of the IFG-tartrate treatment from 8 animals per group 10 μm-thick cryosections were cut for determination of alpha-synuclein pathology. All organs and tissues mentioned were sampled and from specific brain regions i.e. hippocampus, midbrain, frontal cortex and striatum of one hemibrain were extracted and frozen. The other brain half was processed for histological evaluation.
For evaluation of the number of α-synuclein positive cells and Lewy body like inclusions an immunohistochemical staining was carried out using the monoclonal human alpha-synuclein specific antibody (Alexis@; Cat#804-258-L001), dilution 1:5, detected with secondary Cy2 antibody (Jackson Immunoresearch®). The number of alpha-synuclein positive cells in five different layers, one slice per layer, was counted for evaluation in the whole hippocampus and cortex seperately.
Briefly, samples were washed for 10 min with PBS at room temperature, followed by fixing for 30 min at room temperature with 4% paraformaldehyde, followed by washing 2 times for 5 min each with PBS at room temperature. For Proteinase K-treated sections, sections were incubated in PBS containing 10 μg/ml proteinase-K for 10 minutes at room temperature. Next, samples were incubated for 15 min at room temperature with blocking solution to block endogenous peroxidase, followed by two more 5 min washes with PBS. Samples were then incubated for 60 min at room temperature with a blocking reagent to block non-specific binding, followed by two more 5 min washes with PBS. Samples were then incubated with M.O.M. diluent for 5 min at room temperature, followed by incubation with the primary antibody (dilution 1:5 in M.O.M. diluent) for 60 min with at room temperature. […]

The nature of data set [3]: Phase I pharmacokinetics of oral IFG tartrate in healthy volunteers. It is filed as in vivo, human. The note with it: for accumulation after repeated doses: multiple-dose study, 7 days oral, Day 1 vs Day 7. As to the method:
(§1) In a first-in-human single ascending dose study (1a), doses of 8, 25, 75, 150 (two cohorts), and 300 mg were administered (6 active, 2 placebo in each cohort). In a multiple ascending dose study (1b), doses of 25, 75, and 225 mg were administered daily for seven days (6 active, 2 placebo in each cohort). In both studies, of the eight subjects in each group; six were randomized to receive IFG tartrate, and two subjects received placebo. Subjects were confined from the evening of day-1 until 24 hrs after completion of dosing. In the phase 1a study subjects returned at 48 hrs (PK sampling) and 7 days (safety follow-up) following dosing. In the phase 1b study subjects returned at 48 h (PD sampling), 7 days (PD sampling and safety follow-up), and 14 days (PD sampling) following the last dose
Subjects were healthy male and female volunteers between 19 and 55 years of age (inclusive) consisting of members of the community at large.
Blood samples (10 mL each) were collected in blood collection tubes containing EDTA before dosing was determined at regular intervals for the phas 1a during 48 hr following dosing. In the phase 1b study a full IFG tartrate pharmacokinetic profile was determined for 24 hr following the first dose, Cmin values were obtained pre-dose on day 6 and 7, and another full profile was determined for 24 hr following the final, day 7, dose.

Data set [4] in a line: Phase I safety and tolerability in healthy volunteers. It is filed as in vivo, human. The procedure:
as §1
Safety was determined by evaluating vital signs, laboratory parameters (serum chemistry, hematology, and urinalysis), physical examination and by recording adverse events during the Treatment Period.
Safety data including laboratory evaluations, physical exams, adverse events, ECG monitoring and vital signs assessments were summarized by treatment group and point of time of collection. Descriptive statistics (arithmetic mean, standard deviation, median, minimum and maximum) were calculated for quantitative safety data as well as for the difference to baseline. Frequency counts were compiled for classification of qualitative safety data.

The target of data set [5] is GCase (Mus musculus (Mouse), UniProt P17439). The data set can be described thus: In vivo GCase activity in normal mice upon treatment with IFG. As to the method:
This Example provides information on the effects of isofagomine, a GCase-specific chaperone on mice. […] Ten male C57BL6 (25 g) mice per group were used. The drug was be given in the drinking water, therefore water consumption was monitored daily.
In the control group (0 mg/kg/day), the mice were dosed daily in the drinking water (no drug) and divided into two groups. Ten animals were euthanized after 4 weeks of treatment, blood was collected from the descending aorta or vena cava, and tissues were harvested and then necropsied.
In the test group, 10 mice were dosed daily in the drinking water with an administration aim of 200 mg/kg/day.
The blood samples were drawn into lithium heparin and spun for plasma. After bleeding, the spleen, lung, brain and liver were removed and placed into vials. The vials were put into dry ice for rapid freezing. The tissues and plasma were then analyzed for tissue levels of GCase.
Small portions of tissue were removed and added to 500 μl lysis buffer (20 mM sodium citrate and 40 mM disodium hydrogen phosphate, pH 4.0, including 0.1% Triton X-100). Tissues were then homogenized using a microhomogenizer for a brief time, followed by centrifugation at 10,000 rpm for 10 minutes at 4° C. Supernatants were transferred to a new tube and used for the enzyme assay.
The enhancement ratio is equal to the activity with the compound over the activity without the compound.

The target in data set [6] is GCase (Homo sapiens (Human), UniProt P04062). In words: GCase enzymatic activity in healthy volunteers receiving IFG. The format is in vivo. As to the method: as §1
GCase (Homo sapiens (Human), UniProt P04062), sequence (P04062 40-536): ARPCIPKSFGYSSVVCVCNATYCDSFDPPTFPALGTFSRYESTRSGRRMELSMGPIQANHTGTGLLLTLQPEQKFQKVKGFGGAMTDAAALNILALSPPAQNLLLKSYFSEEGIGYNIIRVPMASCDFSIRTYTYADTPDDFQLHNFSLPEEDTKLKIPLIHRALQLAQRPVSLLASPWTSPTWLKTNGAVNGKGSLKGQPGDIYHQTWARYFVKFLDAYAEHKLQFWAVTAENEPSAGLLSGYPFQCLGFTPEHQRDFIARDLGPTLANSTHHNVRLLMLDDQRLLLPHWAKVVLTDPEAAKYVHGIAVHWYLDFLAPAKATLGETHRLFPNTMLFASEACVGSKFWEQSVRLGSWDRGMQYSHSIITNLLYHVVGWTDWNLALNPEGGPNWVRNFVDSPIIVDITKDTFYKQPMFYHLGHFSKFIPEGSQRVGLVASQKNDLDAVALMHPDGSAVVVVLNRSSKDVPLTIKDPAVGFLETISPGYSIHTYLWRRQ
GCase activity was determined pre-dose on days 1, 3, 5, 7, 9, 14, and 21. Blood samples were cooled in an ice bath and centrifuged under refrigeration as soon as possible. Plasma samples were divided into two aliquots and stored at […] pending assay. At the end of the study, all samples were transferred to MDS Pharma Services Analytical Laboratories (Lincoln) for analysis.

Structures can show the parent of a compound that is named as a salt.

GCase (Mus musculus (Mouse), UniProt P17439), sequence (P17439 20-515): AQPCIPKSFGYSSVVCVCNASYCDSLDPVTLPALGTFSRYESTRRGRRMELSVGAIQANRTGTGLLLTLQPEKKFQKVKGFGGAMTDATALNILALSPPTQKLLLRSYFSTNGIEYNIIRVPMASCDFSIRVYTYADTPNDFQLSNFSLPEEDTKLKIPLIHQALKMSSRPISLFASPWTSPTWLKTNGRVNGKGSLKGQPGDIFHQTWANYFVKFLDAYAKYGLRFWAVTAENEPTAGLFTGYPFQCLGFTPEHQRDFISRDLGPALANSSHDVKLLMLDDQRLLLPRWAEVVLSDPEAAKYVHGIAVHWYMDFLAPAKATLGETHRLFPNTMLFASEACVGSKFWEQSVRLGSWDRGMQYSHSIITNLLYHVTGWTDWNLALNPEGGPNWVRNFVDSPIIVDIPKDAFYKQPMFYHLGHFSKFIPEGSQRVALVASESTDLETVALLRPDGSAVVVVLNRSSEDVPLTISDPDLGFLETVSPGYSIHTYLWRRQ

`O[C@H]1[C@H](O)[C@@H](O)[C@@H]2O[C@@H]2[C@@H]1O` [CBE, conduritol-β-epoxide]: the “α-synuclein in the brain” value with α-synuclein [1] is reported as “resulted in accumulation of α-synuclein in the brain”.
Regarding `OC[C@H]1CNC[C@@H](O)[C@@H]1O` [Isofagomine tartrate], in the data set with α-synuclein [2] (2 mg/kg daily, 3 months), the “number of α-synuclein immunoreactive cells in the hippocampus versus vehicle” value was “reduced the number of immunoreactive cells in the hippocampus significantly”. Besides, in the data set on α-synuclein [2] (2 mg/kg, mean of cortex and hippocampus), the “age-accompanied increase of α-synuclein positive cell load versus baseline” value is given as “prevented mice from the age-accompanied increase of pathology”. In addition, in the data set with α-synuclein [2] (20 mg/kg, 3 months, single responding animal), the “accumulation of Proteinase K-resistant α-synuclein aggregates” value is reported as “prevents the accumulation of these α-synuclein aggregates”. Moreover, in the data set on α-synuclein [2] (20 mg/kg, daily or every other day, 3 months), the “α-synuclein pathology versus controls” value is recorded as “not effective versus controls”. Also, the “qualitative α-synuclein immunostaining versus control animals” value with α-synuclein [2] (2 and 20 mg/kg b.w. daily, 3 months, cortex and hippocampus) is “strongly decreased background and decreased α-synuclein positive cell numbers in some”. The “α-synuclein pathology in the cortex” value in the data set on α-synuclein [2] (3 months treatment) is reported as “did not reach significance level in the cortex”. In addition, in data set [3] (healthy volunteers), the “systemic exposure via the oral route” value is on record as “good systemic exposure”. In data set [3], the “accumulation after repeated doses” value was “no unexpected accumulation”. Further, the “plasma AUC and Cmax versus administered dose” value in data set [3] (single-dose study) is “linearly correlated with administered dose”. Besides, the serious adverse events entry in data set [4] (healthy volunteers, both Phase I studies) was “No serious adverse events occurred”. Further, in data set [4] (healthy volunteers, single (8-300 mg) and multiple (25-225 mg, 7 days) oral doses), the tolerability result is “generally well tolerated”.
With `OC[C@H]1CNC[C@@H](O)[C@@H]1O` [Isofagomine, (3R,4R,5R)-5-(hydroxymethyl)-3,4-piperidinediol], the “wild-type GCase activity dose-response” value at GCase [5] (mice treated with 0, 1, 10, or 100 mg/kg/day) was “linear dose-response increase”. The “GCase levels in tissues” value on GCase [5] (normal C57BL6 mice, 200 mg/kg/day in drinking water, liver, spleen, brain and lung) is listed as “increased”. Further, in data set [3], the “accumulation after repeated doses” value was “Minimal accumulation”. The “sex differences in pharmacokinetic parameters” value in data set [3] (repeated doses) was “no observable sex differences”. For the same compound, at GCase [6] (healthy volunteers, treatment period, dose-related, maximum reached), the “increase in GCase levels above baseline” value was “approximately 3.5 fold”. For the same compound, the “GCase levels after removal of the drug” value at GCase [6] (two weeks after the last dose) was “return to near baseline levels by day 21”. Moreover, the “adverse events most frequently reported” value in data set [4] (healthy adult subjects) was “contact dermatitis, headache, nausea, increased serum bilirubin, dizziness, scab, ocular hyperaemia, and puncture site pain”.
